Results as given in BindingDB's records for doi:10.1021/bi060184f (Abbott Laboratories, 2006).

Key:
[1] = target: Dipeptidyl peptidase 8 (Homo sapiens, UniProt Q6V1X1); assay: DPP Inhibition Assay; settings: pH 7.5; 22 °C
[2] = target: Dipeptidyl peptidase 4 (Homo sapiens, UniProt P27487); assay: DPP Inhibition Assay; settings: pH 7.5; 22 °C
Chain of Dipeptidyl peptidase 4 (P27487 whole entry): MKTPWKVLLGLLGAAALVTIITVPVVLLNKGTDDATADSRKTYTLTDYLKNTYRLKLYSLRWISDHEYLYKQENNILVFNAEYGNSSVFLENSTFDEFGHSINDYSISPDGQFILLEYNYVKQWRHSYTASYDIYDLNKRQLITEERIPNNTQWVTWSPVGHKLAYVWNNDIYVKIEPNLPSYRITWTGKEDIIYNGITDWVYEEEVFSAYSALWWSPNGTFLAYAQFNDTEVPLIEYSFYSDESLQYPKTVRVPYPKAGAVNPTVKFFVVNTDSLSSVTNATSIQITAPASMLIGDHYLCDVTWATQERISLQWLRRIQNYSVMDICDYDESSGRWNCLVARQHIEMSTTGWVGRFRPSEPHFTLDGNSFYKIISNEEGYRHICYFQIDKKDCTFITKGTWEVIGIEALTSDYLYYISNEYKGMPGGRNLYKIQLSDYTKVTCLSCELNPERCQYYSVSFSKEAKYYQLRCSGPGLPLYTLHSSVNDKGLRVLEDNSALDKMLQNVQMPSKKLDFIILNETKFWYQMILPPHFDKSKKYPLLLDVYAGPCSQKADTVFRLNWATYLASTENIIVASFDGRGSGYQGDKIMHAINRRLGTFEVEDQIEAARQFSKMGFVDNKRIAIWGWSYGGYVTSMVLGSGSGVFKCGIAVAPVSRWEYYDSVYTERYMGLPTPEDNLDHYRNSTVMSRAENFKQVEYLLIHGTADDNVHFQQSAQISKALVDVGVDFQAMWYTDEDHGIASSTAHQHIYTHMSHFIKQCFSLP

Chain of Dipeptidyl peptidase 8 (Q6V1X1 whole entry): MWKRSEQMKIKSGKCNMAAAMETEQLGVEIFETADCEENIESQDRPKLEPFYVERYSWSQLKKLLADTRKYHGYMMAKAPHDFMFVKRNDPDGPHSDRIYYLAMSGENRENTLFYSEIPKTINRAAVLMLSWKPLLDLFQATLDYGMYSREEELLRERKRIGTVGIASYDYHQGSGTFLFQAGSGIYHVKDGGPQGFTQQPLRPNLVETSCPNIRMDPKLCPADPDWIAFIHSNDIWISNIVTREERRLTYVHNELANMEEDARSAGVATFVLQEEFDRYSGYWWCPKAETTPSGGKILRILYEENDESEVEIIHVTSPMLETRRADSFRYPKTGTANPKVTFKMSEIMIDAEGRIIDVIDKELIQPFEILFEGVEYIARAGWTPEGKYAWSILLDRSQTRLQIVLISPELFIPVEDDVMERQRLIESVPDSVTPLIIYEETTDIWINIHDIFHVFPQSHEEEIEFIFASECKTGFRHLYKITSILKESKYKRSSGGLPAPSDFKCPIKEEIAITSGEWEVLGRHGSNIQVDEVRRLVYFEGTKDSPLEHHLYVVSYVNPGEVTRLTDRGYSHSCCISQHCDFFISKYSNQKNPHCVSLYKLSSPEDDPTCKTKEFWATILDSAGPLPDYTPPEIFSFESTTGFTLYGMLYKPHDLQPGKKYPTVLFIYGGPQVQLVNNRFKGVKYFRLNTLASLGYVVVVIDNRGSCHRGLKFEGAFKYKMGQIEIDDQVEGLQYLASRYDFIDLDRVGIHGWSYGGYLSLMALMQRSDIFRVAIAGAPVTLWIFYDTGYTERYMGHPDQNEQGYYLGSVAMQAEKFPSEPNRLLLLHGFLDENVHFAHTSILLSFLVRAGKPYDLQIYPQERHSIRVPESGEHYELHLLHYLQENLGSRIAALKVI

CC#C[C@H]1CC[C@@H](C#N)N1C(=O)[C@@H](N)C1CCCC1 [(2S,5R)-1-((2S)-2-amino-2-cyclopentylethanoyl)-5-prop-1-ynylpyrrolidine-2-carbonitrile]
Ki [1]: > 30 µM

Cn1c(=O)c2c(nc(N3CCC[C@@H](N)C3)n2Cc2ccccc2C#N)n(C)c1=O [Xanthine mimetic compound 6]
Ki [2]: 0.002 µM | Ki [1]: > 30 µM
